Assay results published in patent publication US7705016B2, “Regulation of food intake by modulation of long-chain fatty acyl-CoA levels in the hypothalamus” (Albert Einstein College of Medicine of Yeshiva University, priority 2003, dated 2010).

What was measured:
Format in all cases: in vivo, rat
[1] = test system: hepatic glucose fluxes; test: Hepatic glucose fluxes (flux through Glc-6-Pase, glucose cycling, direct pathway) after ICV OA
Experimental: Analytical Procedures and Calculations. Plasma glucose was measured by the glucose oxidase method (Glucose Analyzer II, Beckman Instruments, Inc. Fullerton, Calif., USA). Plasma insulin and leptin levels were determined by RIA (rat Leptin RIA kit, Linco Research Inc., St. Charles, Mo.). Serum adiponectin was measured by RIA (Linco Research, Inc., St. Charles, Mo.). Plasma non-esterified fatty acid concentrations were determined an enzymatic method by an automated kit according to the manufacturer's specifications (Waco Pure Chemical Industries. Osaka, Japan). The radioactivity of [3-^3H]glucose in plasma was measured from supernatants of Ba (OH)2 and from ZnSO4 precipitates (Somogyi procedure), after each was evaporated to dryness for the removal of tritiated water. Hepatic uridine diphosphoglucose (UDP-glucose) concentrations and specific activities were obtained by two sequential chromatographic separations, as previously described (Giaccari and Rossetti, 1989; 1992; Rossetti et al., 1993; 1996). Calculations were performed as described (Barzilai et al., 1997).
ICV OA markedly decreases the in vivo flux through Glc-6-Pase. GP represents the net contribution of glucosyl units derived from gluconeogenesis and glycogenolysis. However, a portion of glucose entering the liver via phophorylation by glucokinase is also a substrate for de-phosphorylation via Glc-6-Pase. This futile cycle between glucokinase and Glc-6-Pase is commonly named glucose cycling and accounts for the difference between the total glucose output (flux through Glc-6-Pase) and GP (FIG. 9a).
In order to further delineate the mechanisms responsible for the effect of ICV OA infusion on hepatic glucose production we estimated the in vivo flux through Glc-6-Pase and the relative contribution of glucose cycling to glucose output (Table 3; FIG. 9b,c). FIG. 9b,c depict the effect of ICV OA and ICV vehicle on the rates of hepatic glucose fluxes during the pancreatic-insulin clamp procedure. […]

[2] = test system: hypothalamic NPY mRNA; test: Hypothalamic NPY expression after ICV OA (northern blot); conditions: 30 nmol ICV bolus
Experimental: NPY Expression Studies. For analysis of NPY expression, we studied two groups of rats, HF55 and HF140. After three days on the respective diet regimen, ICV Vehicle (10% HPB in aCSF) or ICV OA (30 nmol) was injected as a bolus into the third cerebral ventricle one hour before the start of the dark cycle. Food was withdrawn and hypothalami were harvested 16 hrs following injection. Northern Blot Analysis. Total RNA was isolated from hypothalami and liver with Trizol (Invitrogen Corp., California, USA). NPY, Glc-6-Pase or PEPCK expression was measured by northern blot analysis. Hypothalamic RNA was analyzed using probes for prepro-NPY and β-actin. To assess the effect of ICV OA on the expression of hepatic enzymes, total RNA was isolated from freeze-clamped liver tissues from rats subjected to insulin clamp studies. Glc-6-Pase and PEPCK cDNA were obtained as previously described (Combs et al., 2001; Massillon et al., 1996; 1998). Probes were labeled with [α-^32P] dCTP using a random primer kit (Stratagene). Quantification was performed by scanning densitometry, normalizing for β-actin signal and 18S ribosomal RNA to correct for loading variabilities.

[3] = test system: NPY, AgRP and POMC mRNA in ARC; test: Neuropeptide (NPY, AgRP, POMC) mRNA in ARC by real-time PCR; conditions: ICV
Description: In order to begin investigating the mechanisms responsible for the anorectic properties of ARC CPT1 inhibition, we next analyzed the effect of CPT1L-Ribo on the gene expression of key ARC peptides. […] Overall, these anorectic effects support the notion that changes in the neuronal levels of LC-CoAs may directly control food intake via their action on discrete hypothalamic centers. Furthermore, increases in LC-CoAs levels in selective hypothalamic neurons are likely to account for the potent effects of oleic acid and of FAS inhibitors on food intake (Loftus et al., 2000; Obici et al., 2002a; Makimura et al., 2001; Shimokawa et al., 2002).
Total RNA was isolated with Trizol (Invitrogen, Carlsbad, Calif.) from individual hypothalamic nuclei (i.e. Arcuate, PVN etc.). Single strand cDNA synthesis and real-time PCR reactions were performed as previously described (Obici et al., 2002b). CPT1L and CPT1M mRNA specific primers contained the following sequences: CPT1L forward (F) 5′-[…]-3′ (SEQ ID NO:5) and reverse (R) primer, 5′-[…]-3′ (SEQ ID NO:6); CPT1M F 5′-[…]-3′ (SEQ ID NO:7) and R 5′-[…]-3′ (SEQ ID NO:8). Hypothalamic neuropeptides expression was performed by real-time PCR using the following primers: NPY-F 5′-[…]-3′ (SEQ ID NO:9), R 5′-[…]-3′ (SEQ ID NO:10), POMC-F 5′-CCAGGCAACGGAGATGAAC-3′ (SEQ ID NO:11), R 5′-TCACTGGCCCTTCTTGTGC-3′ (SEQ ID NO:12), AgRP-F 5′-[…]-3′ (SEQ ID NO:13), R 5′-[…]-3′ (SEQ ID NO:14), and β-actin F 5′-[…]-3′ (SEQ ID NO:15), R 5′-[…]-3′ (SEQ ID NO:16). Transcript levels are expressed as copy number of each gene normalized to copy number for β-actin. Copy number for each transcript was measured against a standard curve, which was obtained by PCR runs of each primer set with serial dilutions of a plasmid containing the target template sequences.

[4] = caloric restricted rats (55 kcal/d)

Row | Molecule | glucose cycling [1, 4] | total glucose output (in vivo flux through glucose-6-phosphatase) [1, 4] | glucose cycling ([1]; over-fed rats (140 kcal/d)) | suppression of hypothalamic NPY mRNA expression ([2]; 55-kcal/d group, overnight fast) | decrease in hypothalamic NPY mRNA ([2]; three days of voluntary overfeeding (HF140), fasted) | expression of POMC in the ARC [3] | AgRP mRNA in the ARC ([3]; compared with Control-Ribo) | NPY mRNA in the ARC ([3]; compared with Control-Ribo)
1 | CCCCCCCC/C=C\CCCCCCCC(=O)O [OA, oleic acid] | modestly and similarly decreased | markedly suppressed | modestly and similarly decreased | ~60% | 28% | – | – | –
2 | CPT1L-Ribo: plasmid (pTarget, CMV promoter) expressing a hammerhead ribozyme that specifically cleaves rat CPT1L mRNA, complexed to PEI for ICV injection (DNA CUGUACCAAAGAGCUGUAGAGUCCGUGAGGACGAAACGCCGCUCACAAUG) | – | – | – | – | – | not significantly altered | marked decrease | marked decrease
